Where two headings read alike, the source gives them in different places.
How the values were obtained:
[1] = target: mushroom tyrosinase (mTYR); test: Mushroom tyrosinase inhibition assay; type: biochemical, Agaricus bisporus; parameters: Tyrosinase inhibition (%): dose or concentration left out as unconfirmed; conditions: for IC50: mushroom tyrosinase; for IC50 / Tyrosinase inhibition (%): L-tyrosine substrate; for Tyrosinase inhibition (%): […] μM of compound
Procedure: The tyrosinase inhibitory activity assays on the synthesized DHIT derivatives 1a – 1 k was performed using mushroom tyrosinase (mTYR), as previously described with minor modification. […] The optical densities of dopachrome produced during incubation were measured using a microplate reader (VersaMax™, Molecular Devices, Sunnyvale, CA, USA) at 492 nm. […] All experiments were conducted in triplicate. To calculate the tyrosinase inhibitory activities, the following formula was used: % inhibition = [(1− (A/B)) × 100], where A is test sample optical density and B is the optical density of the non-treated control.
IC50 values were calculated by plotting linear regression curves of percentage inhibitions versus derivative concentrations. The negative control was obtained by adding dimethyl sulfoxide (DMSO) instead of a DHIT derivative.

[2] = target: mushroom tyrosinase; parameters: method as in PMID 29521165; conditions: cited from earlier work

`COc1ccc(/C=c2\sc3n(c2=O)CCN=3)cc1` [Compound 1 g, (Z)-2-(4-Methoxybenzylidene)-5,6-dihydroimidazo[2,1-b]thiazol-3(2H)-one] gave an IC50 [1] of over 100 µM.

`COc1ccc(/C=c2\sc3n(c2=O)CCN=3)c(OC)c1` [Compound 1 h, (Z)-2-(2,4-Dimethoxybenzylidene)-5,6-dihydroimidazo[2,1-b]thiazol-3(2H)-one] showed an IC50 [1] of over 100 µM.

Compound `COc1cc(/C=c2\sc3n(c2=O)CCN=3)cc(OC)c1OC` [Compound 1 k, (Z)-2-(3,4,5-Trimethoxybenzylidene)-5,6-dihydroimidazo[2,1-b]thiazol-3(2H)-one] has an IC50 [1] of over 100 µM.

With `O=c1/c(=C/c2ccc(O)cc2)sc2n1CCN=2` [Compound 1a, (Z)-2-(4-Hydroxybenzylidene)-5,6-dihydroimidazo[2,1-b]thiazol-3(2H)-one] the “mushroom tyrosinase inhibition compared with kojic acid” value [1] was “inhibited mTYR more than kojic acid”, the IC50 [1] was 36.1 ± 3.9 µM and the “fold stronger tyrosinase inhibitor than kojic acid” value ([1]; ratio of IC50 values) was 2.3 fold.

Work on `O=c1/c(=C/c2ccc(O)c(O)c2)sc2n1CCN=2` [Compound 1c, (Z)-2-(3,4-Dihydroxybenzylidene)-5,6-dihydroimidazo[2,1-b]thiazol-3(2H)-one] yielded an IC50 [1] of over 100 µM.

With `COc1cc(/C=c2\sc3n(c2=O)CCN=3)ccc1O` [Compound 1d, (Z)-2-(4-Hydroxy-3-methoxybenzylidene)-5,6-dihydroimidazo[2,1-b]thiazol-3(2H)-one] the “Tyrosinase inhibition (%)” value ([1]; […] µM) was 7.83 ± 2.29% and the IC50 [1] was over 100 µM.

With `CCOc1cc(/C=c2\sc3n(c2=O)CCN=3)ccc1O` [Compound 1e, (Z)-2-(3-Ethoxy-4-hydroxybenzylidene)-5,6-dihydroimidazo[2,1-b]thiazol-3(2H)-one] the “Tyrosinase inhibition (%)” value ([1]; […] µM) was 3.90 ± 2.65% and the IC50 [1] was over 100 µM.

In the case of `COc1ccc(/C=c2\sc3n(c2=O)CCN=3)cc1OC` [Compound 1i, (Z)-2-(3,4-Dimethoxybenzylidene)-5,6-dihydroimidazo[2,1-b]thiazol-3(2H)-one], the “Tyrosinase inhibition (%)” value [1] is reported as “low or no mTYR inhibitory activity” and the IC50 [1] is reported as over 100 µM.

With `COc1cc(/C=c2\sc3n(c2=O)CCN=3)cc(OC)c1O` [Compound 1j, (Z)-2-(4-Hydroxy-3,5-dimethoxybenzylidene)-5,6-dihydroimidazo[2,1-b]thiazol-3(2H)-one] the “Tyrosinase inhibition (%)” value [1] was 24.43 ± 1.50% and the IC50 [1] was over 100 µM.

For `[H]/N=C1/NC(=O)C(=Cc2ccc(OC)c(O)c2)S1` [MHY773, (Z)-5-(3-hydroxy-4-methoxybenzylidene)-2-iminothiazolidin-4-one], the IC50 ([2]; diphenolase) is given as 8.06 µM and the IC50 ([2]; monophenolase) is given as 2.87 µM.

With `O=c1cc(CO)occ1O` [kojic acid, reference compound] the “Tyrosinase inhibition (%)” value ([1]; […] µM) was 30% and the “Tyrosinase inhibition (%)” value ([1]; listed as KA, […] µM) was 30.26 ± 0.55%.

Source: paper PMC8861568, “Identification of (Z)-2-benzylidene-dihydroimidazothiazolone derivatives as tyrosinase inhibitors: Anti-melanogenic effects and in silico studies” (Computational and Structural Biotechnology Journal, 2022)
